The text below walks through data of US20260226044A1, “PREPARATION OF AN S1P RECEPTOR MODULATOR” (Oppilan Pharma Limited, priority 2023, published 2026).

The target of this assay is T1, human S1P1 (Homo sapiens, UniProt P21453).
T1 construct: CHO-K1 Gαqi5 cells expression full-length human S1P1; expressed in transfected cells; host or cells: CHO-K1 Gαqi5 cells (membranes)
Nature of the assay: GTPγS binding assay (scintillation proximity assay, S1P1 membranes). It is filed as biochemical. As to conditions: membranes from CHO-K1 Gαqi5 cells expressing full-length human S1P1; GTPγ35S; 60 minutes incubation. The procedure: Example 4: GTPyS Binding Assay
S1P1 membrane is prepared from CHO-K1 Gαqi5 cells expression full-length human S1P1. Scintillation proximity assay (SPA) is performed by incubating membranes, GTPγ^35S, and compounds at various concentrations for 60 minutes. Wheat germ agglutinin-coated SPA beads are added and incubated for 60 minutes before centrifugation and scintillation counting.
(GTPγS is a poorly hydrolysed GTP analogue; its binding reports G protein activation.)

T1 sequence (P21453 whole entry): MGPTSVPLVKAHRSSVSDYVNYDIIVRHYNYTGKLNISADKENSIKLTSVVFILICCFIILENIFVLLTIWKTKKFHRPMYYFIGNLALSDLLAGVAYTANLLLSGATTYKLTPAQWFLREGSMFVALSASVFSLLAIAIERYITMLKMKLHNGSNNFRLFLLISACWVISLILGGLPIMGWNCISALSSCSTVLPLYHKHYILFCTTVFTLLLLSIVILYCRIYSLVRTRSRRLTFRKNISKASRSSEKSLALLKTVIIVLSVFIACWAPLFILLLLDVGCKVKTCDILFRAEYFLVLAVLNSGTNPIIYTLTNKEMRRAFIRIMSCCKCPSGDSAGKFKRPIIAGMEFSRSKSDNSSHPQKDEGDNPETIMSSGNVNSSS

`O=C1CC[C@@H](Oc2cc(Cl)c(-c3noc(-c4cn5cc(C(F)(F)F)cc(Cl)c5n4)n3)cc2Cl)CN1` [Compound 1, (R)-5-(2,5-dichloro-4-(5-(8-chloro-6-(trifluoromethyl)imidazo[1,2-a]pyridin-2-yl)-1,2,4-oxadiazol-3-yl)phenoxy)piperidin-2-one] gave a 50% effective concentration (EC50) of less than 1000 nM.

For orientation: EC50 means the concentration at which the effect is half-maximal. Read a low EC50 as higher potency in that assay.
